Assay: Release of pesticide from 3-D printed binary solid objects in a stirred dissolution basket
Type: physicochemical
Details: for Percentage Release, Water - after 720 min.: from binary solid object T7 (T3 + T4, no surfactant); for Percentage Release, Water - after 720 min. / Percentage Release, Water - after 30 min.: into water; for Percentage Release, S1 - after 30 min. / Percentage Release, S2 - after 30 min.: from binary solid object T7; for Percentage Release, S1 - after 30 min.: into S1 = water with 0.5% w/w Agnique FOH 90C-20; for Percentage Release, S2 - after 30 min.: into S2 = water with 0.5% w/w Agnique FOH 90C-20 and 1% Tween 80
Method: This Example illustrates a binary (two-sectioned) extruded solid object displaying both slow and fast release. The release of pesticide from the 3-D printed binary solid object T7 of Example 2 (containing T3 and T4) was measured. In each experiment three T7 solid objects were added to a dissolution basket which was stirred at 30 rpm. Release was measured into water; into water containing a commercially available surfactant (S1); and into water with two different types of commercially available surfactant (S2). […] Binary solid object T7 released 64% of the pesticide in 720 minutes. The release of the fungicide azoxystrobin in the same time period was only 27%; this was slow release. Release rates into the two surfactant containing media were faster for both pesticides. S1 contained water with 0.5% w/w of Agnique®FOH 90C-20 whereas S2 contained water with 0.5% w/w Agnique®FOH 90C-20 and 1% Tween® 80. Tween® 80 is a non-ionic surfactant: polyoxyethylene (20) sorbitan monooleate.
This Example illustrates the effect of a surfactant of the release profile of a binary (two-sectioned) extruded solid object. Similarly to Example 3, the releases of pesticides from the 3-D printed binary solid object T8 of Example 2 (containing T5 and T6) were measured; three solid objects T8 were added to a dissolution basket which was stirred at 30 rpm. […] Furthermore, compared to solid object T7 releasing fomesafen into water which already contains a high concentration of the same surfactant (S1 of Example 2), the release from T8 (the formulation with built-in surfactant) was considerably faster (78% versus 39.3% [S1]). […] Similar to the case for fomesafen we also see that the T8 azoxystrobin section (with built-in surfactant) released considerably more of the azoxystrobin than the T7 (surfactant free) solid object releasing into a surfactant solution (37% versus 28.9%).

[1] = from binary solid object T7 (sections T3 + T4, no surfactant), three objects, basket stirred at 30 rpm, 30 min
[2] = from binary solid object T7 into water, 720 min
[3] = from binary solid object T8 (fomesafen section T5, azoxystrobin section T6, both with built-in alkyl ethoxylate surfactant), 30 rpm, 30 min

| Structure (SMILES) | Percentage Release, Water - after 720 min. (30 rpm, 720 min) | Percentage Release, Water - after 30 min. [1] | Percentage Release, S1 - after 30 min. (30 rpm, 30 min) | Percentage Release, S2 - after 30 min. (30 rpm, 30 min) | Release profile (in words) [2] | Percentage Release, Water - after 30 min. [3] | Increase of release rate from T8 compared to T7 (factor, water, 30 min, T8 (with surfactant) versus T7 (no surfactant)) | Release profile (in words) (from binary solid object T8 into water, 30 min) |
| --- | --- | --- | --- | --- | --- | --- | --- | --- |
| CO/C=C(/C(=O)OC)c1ccccc1Oc1cc(Oc2ccccc2C#N)ncn1 [Azoxystrobin] | 27% | 15.6% | 28.9% | 48.3% | slow release | 37% |  |  |
| CS(=O)(=O)NC(=O)c1cc(Oc2ccc(C(F)(F)F)cc2Cl)ccc1[N+](=O)[O-] [Fomesafen] | 64% | 23.6% | 39.3% | 45.9% | fast release | 78% | three | fast release |

Reference: patent US20210045381A1, “FORMULATIONS” (priority 2018, published 2021)
